From patent US12440550B2 (priority 2015, dated 2025)

How the values were obtained:
[1] = test system: Calu-3 cells; assay type: cell-based, human
[2] = test system: Calu-3 cells

In the case of `OC[C@@H](O)[C@@H](O)[C@H](O)[C@H](O)CO` [mannitol], the “increase in transduction efficiency with respect to virus formulated in saline (factor)” value (“increase in transduction efficiency” below) [1] is reported as 1.61.

`OC[C@H]1O[C@H](OC[C@H]2O[C@H](O[C@]3(CO)O[C@H](CO)[C@@H](O)[C@@H]3O)[C@H](O)[C@@H](O)[C@@H]2O)[C@H](O)[C@@H](O)[C@H]1O` [raffinose] was tested, and the “increase in transduction efficiency” value [1] was “did not significantly enhance transduction”.

`OC[C@H]1O[C@@](CO)(O[C@H]2O[C@H](CO)[C@@H](O)[C@H](O)[C@H]2O)[C@@H](O[C@H]2O[C@H](CO)[C@@H](O)[C@H](O)[C@H]2O)[C@@H]1O` [melezitose] was tested, and the “increase in transduction efficiency” value [1] was 1.51.

`OC[C@@H](O)[C@@H](O)[C@H](O)[C@@H](O)CO` [sorbitol] was tested, and the “increase in transduction efficiency” value [1] was “did not significantly enhance transduction”.

`OC[C@H]1O[C@@](CO)(O[C@H]2O[C@H](CO)[C@@H](O)[C@H](O)[C@H]2O)[C@@H](O)[C@@H]1O` [sucrose] was tested, and the “increase in transduction efficiency” value [1] was 1.96.

`CCCCCCCCCCCCO[C@@H]1O[C@H](CO)[C@@H](O[C@H]2O[C@H](CO)[C@@H](O)[C@H](O)[C@H]2O)[C@H](O)[C@H]1O` [nDMPS, N-dodecyl-β-D-maltopyranoside, reference compound] was tested, and the “increase in transduction efficiency” value [1] was “second most efficacious formulation” and the cell lysis [2] was greater than 80%.
